Experimental data as given in publication PMC7279038, “Antioxidant and Neuroprotective Effects Induced by Cannabidiol and Cannabigerol in Rat CTX-TNA2 Astrocytes and Isolated Cortexes” (International Journal of Molecular Sciences, 2020).

Key:
[1] = Cupric reducing antioxidant capacity (CUPRAC); settings: mean ± S.D., n = 3
Protocol: For the cupric ion reducing activity (CUPRAC) activity assay, sample solution was added to premixed reaction mixture containing CuCl2 (1 mL, 10 mM), neocuproine (1 mL, 7.5 mM) and NH4Ac buffer (1 mL, 1 M, pH 7.0). Similarly, a blank was prepared by adding sample solution (0.5 mL) to premixed reaction mixture […] without CuCl2. Then, the sample and blank absorbances were read at 450 nm after a 30 min incubation at room temperature. The absorbance of the blank was subtracted from that of the sample. CUPRAC activity was expressed as IC50 values.

[2] = system: CTX-TNA2 astrocyte cell line; test: ROS production by flow cytometry; type: cell-based, rat; settings: challenged with 300 µM H2O2; 1000 nM CBD, 1 nM CBG; 24 and 48 h
Protocol: The CTX-TNA2 rat astrocytes were purchased from the European Collection of Cell Cultures (ECACC), Sigma-Aldrich, Milan, Italy, and cultured as already indicated. Cells were grown in Dulbecco’s Modified Eagle Medium supplemented with 10% of FBS and penicillin–streptomycin (100 µgmL^−1) (all from EuroClone SpA Life-Sciences-Division, Milan, Italy) and maintained in a humified atmosphere of 5% CO2 at 37 °C. Cells were subcultivated at a ratio of 1.2 to 1.8 and the medium was changed every 3 days. CTX-TNA2 astrocytes were plated in 25 or 75 cm^2 flasks, according to experimental needing and cells between the eight and the 15 passage were used.
When indicated, the cells were treated with H2O2 300 µM for three hours and different concentrations of CBD (1–1000 nM) and CBG (1–1000 nM). […]
Reactive oxygen species (ROS) production was determined as already reported by monitoring by flow cytometry the increase in green fluorescence after labeling the cells (5 × 10^5) with 5 μmolL^−1 of 5-(and-6)-chloromethyl-2′,7′-dichlorodihydrofluorescein diacetate, acetyl ester (CM-H2DCFDA, Molecular Probes, Invitrogen, Life-Sciences-Division, Milano, Italy) for 40 min followed by 20 min of recovery at 37 °C. The increase in green fluorescence, indicating the production of ROS, was detected by a Cytoflex flow cytometer with an FL1 detector in a log mode (Beckmann Coulter, FL, USA). […]

synaptotagmin-1 (Syt 1) = test: Untargeted proteomic analysis of cortexes, Syt 1; design: species or system rat; settings: CBD 1000 nM, CBG 1 nM
Protocol: Sprague–Dawley rats (200–250 g) were sacrificed by CO2 inhalation (Italian Health Ministry authorization N. F4738.N.XTQ, delivered on 11th November 2018) and isolated prefrontal cortex specimens were immediately explanted and incubated in thermostatic shaking bath at 37 °C for 1 h (incubation period), in Krebs–Ringer buffer at the following K^+ concentrations:
Cortexes were stimulated with CBD (1000 nM) and CBD (1 nM). Afterwards, specimens were homogenized in perchloric acid solution (0.05 M) for the extraction and quantification of nitrites, via the aforementioned colorimetric Griess assay, and serotonin (5-HT), 5-hydroxyindoleacetic (5HIIA),3-hydroxykinurenine (3-HK) and kinurenic acid (KA) (ng/mg wet tissue) via high performance liquid chromatography analysis. Additionally, an untargeted proteomic analysis was carried out on the cortex homogenate. The analytical protocols for 5-HT, 5HIIA, 3-HK, KA and protein level determinations are described below. […]
After protein quantification, a volume corresponding to 50 μg of proteins was loaded onto a Nanosep 10-kDa-cutoff filter (Pall Corporation, Michigan, USA) and digested according to the protocol we routinely use in our laboratory, adapted from Distler et al. Briefly, the sample was washed twice with 200 μL urea buffer (8M urea, 100 mM Tris pH 8.5 in milliQ water) to remove the detergents present in the lysis buffer. […]

| SMILES | IC50 [1] | ROS production [2] | effect on K+ 60 mM-induced reduction in Syt 1 level (synaptotagmin-1 (Syt 1)) |
| --- | --- | --- | --- |
| C=C(C)[C@@H]1CCC(C)=C[C@H]1c1c(O)cc(CCCCC)cc1O [CBD, Cannabidiol] | 940 ± 10 µM | reduction in ROS production | blocking the downregulation |
| CCCCCc1cc(O)c(C/C=C(\C)CCC=C(C)C)c(O)c1 [CBG, cannabigerol] | 590 ± 10 µM | reduction in ROS production | completely ineffective |
